Results taken from PMC10397409, “The action of physiological and synthetic steroids on the calcium channel CatSper in human sperm” (Frontiers in Cell and Developmental Biology, 2023).
Read-outs that look alike come from different tables or passages of the source.

What was measured:
CatSper [1] = molecular target: T1, CatSper (Homo sapiens, UniProt Q7RTX7+Q86XQ3+Q8NEC5+Q96P56); assay: Inhibition of PGE1-induced Ca2+ influx in human sperm (screen 2 inhibitors); type: cell-based
T1 construct: Motile spermatozoa were selected by a ‘swim-up’ procedure; endogenous in cells; host or cells: motile human spermatozoa (swim-up) from healthy donors
Procedure: Briefly, motile spermatozoa were selected by swim-up and labeled with the fluorescent calcium indicator Fluo-4 a.m. to image changes in [Ca^2+]i. After centrifugation to remove excess dye, Fluo-4 AM loaded cells were distributed in a 384-wells plate to obtain ∼125,000 cells/well. After measuring basal fluorescence, a first injection of compounds was performed in order to evaluate their effect on [Ca^2+]i alone. This first screen is therefore considered as a screen to search for ‘activators’. Fluorescence was recorded for 12 min during which sperm cells were continuously exposed to compounds. P4 or PGE1 were then added in the same wells to evaluate whether the tested compounds can reduce the ligand-induced activation of CatSper. This second screen was therefore considered to be a search for CatSper ‘inhibitors’.
Human semen samples were collected from healthy donors by masturbation after a recommended sexual abstinence period of minimum 2 days. Semen samples were allowed to liquefy at 37°C for 15–30 min. Motile spermatozoa were selected by a ‘swim-up’ procedure as previously described ([Strünker et al., 2011]). Briefly, 1 mL of semen was deposited in a 45°-inclined 50 mL Falcon tube with 4 mL of Human Tubular Fluid (HTF) medium containing: 93.8 mM NaCl, 4.7 mM KCl, 0.2 mM MgSO4, 0.37 mM KH2PO4, 2.04 mM CaCl2, 20.98 mM HEPES, 2.78 mM glucose, 21.4 mM Na-lactate, 4 mM NaHCO3, 0.33 mM Na-pyruvate, and the pH was adjusted to 7.35. Motile sperm were allowed to swim at 37°C for 1 hour. The supernatant was collected in 15 mL Falcon tubes and washed twice by centrifugation at 700 x g for 20 min. Sperm were supplemented with 3 mg/mL HSA. Written informed consent was obtained from all donors prior to donation and approved by the Cantonal Ethics Committee of the State of Geneva (CCER #14-147).
Cells were loaded with the fluorescent Ca^2+ indicator Fluo-4 AM at a final concentration of 2.5 µM for 30 min at 37°C. Excess dye was washed via centrifugation at 700 x g for 20 min and sperm were resuspended in HTF medium to obtain a final concentration of 6.25 x 10^6 cells/mL. 20 μL of cells (corresponding to ∼125,000 cells) loaded with Fluo-4 a.m. were dispensed in a 384-wells plate (Corning, NY, United States) to allow fluorescence measurement. The dye was excited at 480 nm, and emission was recorded at 530 nm. The change in [Ca^2+]i was assessed simultaneously in all wells using a Functional Drug Screening System (FDSS/μCELL) (Hamamatsu Phototonics K.K., Yokohama, Japan) at 37°C. Basal fluorescence was first measured for 30 s. […] P4 and PGE1 were tested at a near-saturating concentration in the HTS in order to evaluate a potential additive or synergistic effect induced by the compounds. Non-specific CatSper inhibitor MDL 12330A was used as a negative control at final concentration of 20 µM while DMSO was used as a vehicle control. For alkalization-induced Ca^2+ measurement, NH4Cl was used as a positive control at a final concentration of 10 mM. Fluorescence was recorded for a total of 16.5 min: 30 s before injection, 12 min after the first injection of the tested compounds, and 4 min after the second injection of either P4 or PGE1. The Prestwick library was tested in technical duplicate. Ca^2+ response curves were normalized using the following formula F−F0/F0×100 , where F 0 is the average of the basal fluorescence prior to the addition of the compound of interest and F corresponds to the fluorescence value at each time point. The ∆F/F0 of the vehicle control (DMSO) was subtracted from all the other values to adjust for dilution and pipetting artifacts. The values of all compounds were normalized to their respective controls.

CatSper [2] = molecular target: T1, CatSper; assay: Steroid-induced increase in [Ca2+]i in human sperm (Fluo-4 HTS assay, screen 1 activators); type: cell-based; conditions: for Emax: read-out: Max amplitude (%) (± SD)
[3] = EC50 (±SD), increase in [Ca2+]i, dose-response 90 µM to 0.3 nM
[4] = Mean EC50 µM (±SD), pooled from 3 independent experiments
[5] = maximal amplitude of steroid-induced [Ca2+]i increase, relative to P4, 3 independent experiments

| SMILES | IC50 (CatSper [1]) [nM] | EC02 compared with reported maximum concentration in blood serum (CatSper [2]) | effective concentrations as low as (dose-dependent increase in [Ca2+]i) (CatSper [2]) [nM] | EC50 (CatSper [2]; [3]) [µM] | EC50 (CatSper [2]; [4]) [µM] | Emax (CatSper [2]; [5]) [%] | increase in [Ca2+]i (CatSper [2]; at low concentrations in the nanomolar range) [%] | Emax (CatSper [2]) [%] | EC50 (CatSper [2]; increase in [Ca2+]i in human sperm, read-out: EC50) [µM] | EC50 (CatSper [2]; increase in [Ca2+]i, dose-response 90 µM to 0.3 nM, read-out: EC50 (±SD)) [µM] | EC50 (CatSper [2]; pooled from 3 independent experiments, read-out: Mean EC50 µM (±SD)) [µM] |
| --- | --- | --- | --- | --- | --- | --- | --- | --- | --- | --- | --- |
| CC(=O)[C@H]1CC[C@H]2[C@@H]3CC=C4C[C@@H](O)CC[C@]4(C)[C@H]3CC[C@]12C [Pregnenolone] | 11 | EC02 below the reported maximum concentration found in blood serum | 10 | 0.073 | 0.07 | 73 | – | – | – | – | – |
| C[C@]12Cc3c[nH]nc3C[C@@H]1CC[C@@H]1[C@@H]2CC[C@@]2(C)[C@H]1CC[C@]2(C)O [Stanozolol] | 117 | – | – | 0.285 | 0.081 | – | 30 | 79 | – | – | – |
| CC(=O)[C@H]1CC[C@H]2[C@@H]3CCC4=CC(=O)CC[C@]4(C)[C@H]3CC[C@]12C [Progesterone] | – | – | – | – | – | 100 | – | – | 0.0025 | 0.003 | 0.002 |
| C[C@]12CC[C@H](O)C[C@@H]1CC[C@@H]1[C@@H]2CC[C@]2(C)C(=O)CC[C@@H]12 [Epiandrosterone] | – | EC02 below the reported maximum concentration found in blood serum | – | 0.209 | 0.207 | – | – | 78 | – | – | – |
